Laboratory results from paper PMC8049364, “Quantification of Macrophage-Driven Inflammation During Myocardial Infarction with ^18F-LW223, a Novel TSPO Radiotracer with Binding Independent of the rs6971 Human Polymorphism” (Journal of Nuclear Medicine, 2021).

Biological target: T1, TSPO (Rattus norvegicus, UniProt P16257)
T1 construct: Thirty-three adult male Sprague–Dawley rats; from tissue; host or cells: living adult male Sprague-Dawley rats; heart, LV anterior wall, lung and brain VOIs
Assay: PET/CT imaging and 2-tissue-compartment kinetic modelling in naïve and PK11195-blocked rats
Assay type: in vivo
Parameters: K1 (2T analysis), mean / k2 (2T analysis), mean / k3 (2T analysis), mean / k4 (2T analysis), mean / VT (2T analysis), mean: unit not given here
Description: Thirty-two PET scans were performed with ^18F-LW223 (17.8 ± 1.5 MBq, intravenous bolus, mean ± SEM). Naïve and MI rat scans were acquired immediately after intravenous bolus injection of ^18F-LW223. […] Dosimetry studies were conducted using mice and 240-min PET scans.
A commercially available system (Twilite2; Swisstrace) was used for the measurement of blood radioactivity as previously described ([17]). The whole-blood arterial input function measured by the automatic blood sampler was corrected for the plasma–to–whole-blood ratio and for metabolism in vivo.
Data were acquired using a PET/CT small-animal scanner (nanoPET/CT; Mediso). A CT scan (semicircular full trajectory, maximum field of view, 480 projections, 50 kVp, 300 ms, and 1:4 binning) was acquired for attenuation correction. Immediately after radiotracer administration, a 120- or 240-min emission scan was obtained using 3-dimensional 1:5 mode. For rat studies, rebinning was 18 × 10 s, 2 × 30 s, 1 × 60 s, 2 × 2 min, 10 × 5 min, 6 × 10 min, or 18 × 10 min. For mouse studies, rebinning was 4 × 5 min, 4 × 10 min, or 9 × 20 min. Rat PET studies were reconstructed using the iterative Tera-Tomo 3-dimensional reconstruction algorithm (Mediso), which includes point-spread correction, and the following settings: 4 iterations, 6 subsets, full detector model, low regularization, spike filter on, voxel size of 0.4 mm, and 400- to 600-keV energy window. Mouse dosimetry PET data were reconstructed using filtered backprojection, a voxel size of 0.4 mm, and a 400- to 600-keV energy window. All PET data were corrected for randoms, scatter, and attenuation.
Reconstructed scans were imported into PMOD, version 3.8 (PMOD Technologies). Volumes of interest (VOIs) were manually drawn around the brain, heart, and lung using CT images. To sample the infarct area (or an equivalent area in naïve hearts), averaged PET images (0–120 min) were used to place 3 spheric VOIs at the center of the infarct territory within the ventricular wall (1.5 mm^3). […] Time–activity curves were generated, and SUVs were calculated as concentration in the VOI divided by injected dose divided by animal weight. Kinetic modeling was performed using the 2-tissue-compartment model to estimate the kinetic rate constants K1–k4 and the total volume of distribution (VT) in different tissues. Blood volume fraction (VB) was not modeled in this study. Two-tissue-compartment modeling was selected as the preferred model on the basis of a comparison of goodness and robustness of fitting versus several other models (Supplemental Fig. 3; Supplemental Table 2). The binding potential relative to nondisplaceable volume (BPND) was defined as k3/k4 ([19]). The transfer-corrected BPND, termed BPTC, was formulated as follows:Eq. 1 BPTC=k3/k4÷K1,

[1] = Brain, Blocked Naive (PK11195, 1mg/kg) n = 3
[2] = Global Heart, Blocked Naive (PK11195, 1mg/kg) n = 3
[3] = LV Anterior Wall, Blocked Naive (PK11195, 1mg/kg) n = 3
[4] = Lung, Blocked Naive (PK11195, 1mg/kg) n = 3

- K1 (2T analysis), mean [1]: 0.06
- VT (2T analysis), mean [1]: 0.93
- k2 (2T analysis), mean [1]: 0.11
- k3 (2T analysis), mean [1]: 2.324
- k3/k4 (2T analysis), mean [1]: 0.71
- k4 (2T analysis), mean [1]: 2.33
- K1 (2T analysis), mean (Brain, Naive n = 6): 0.14
- VT (2T analysis), mean (Brain, Naive n = 6): 1.6
- k2 (2T analysis), mean (Brain, Naive n = 6): 0.18
- k3 (2T analysis), mean (Brain, Naive n = 6): 0.016
- k3/k4 (2T analysis), mean (Brain, Naive n = 6): 1.22
- k4 (2T analysis), mean (Brain, Naive n = 6): 0.01
- K1 (2T analysis), mean [2]: 0.19
- VT (2T analysis), mean [2]: 4.56
- k2 (2T analysis), mean [2]: 0.23
- k3 (2T analysis), mean [2]: 0.721
- k3/k4 (2T analysis), mean [2]: 4.52
- k4 (2T analysis), mean [2]: 0.13
- K1 (2T analysis), mean (Global Heart, Naive n = 6): 0.58
- VT (2T analysis), mean (Global Heart, Naive n = 6): 9.93
- k2 (2T analysis), mean (Global Heart, Naive n = 6): 0.33
- k3 (2T analysis), mean (Global Heart, Naive n = 6): 0.031
- k3/k4 (2T analysis), mean (Global Heart, Naive n = 6): 4.77
- k4 (2T analysis), mean (Global Heart, Naive n = 6): 0.01
- K1 (2T analysis), mean [3]: 0.28
- VT (2T analysis), mean [3]: 75.25
- k2 (2T analysis), mean [3]: 0.08
- k3 (2T analysis), mean [3]: 0.855
- k3/k4 (2T analysis), mean [3]: 12.64
- k4 (2T analysis), mean [3]: 0.23
- K1 (2T analysis), mean (LV Anterior Wall, Naive n = 6): 0.9
- VT (2T analysis), mean (LV Anterior Wall, Naive n = 6): 29.95
- k2 (2T analysis), mean (LV Anterior Wall, Naive n = 6): 0.26
- k3 (2T analysis), mean (LV Anterior Wall, Naive n = 6): 0.033
- k3/k4 (2T analysis), mean (LV Anterior Wall, Naive n = 6): 7.99
- k4 (2T analysis), mean (LV Anterior Wall, Naive n = 6): 0.00
- K1 (2T analysis), mean [4]: 0.16
- VT (2T analysis), mean [4]: 2.2
- k2 (2T analysis), mean [4]: 0.35
- k3 (2T analysis), mean [4]: 0.181
- k3/k4 (2T analysis), mean [4]: 3.19
- k4 (2T analysis), mean [4]: 0.05
- K1 (2T analysis), mean (Lung, Naive n = 6): 0.94
- VT (2T analysis), mean (Lung, Naive n = 6): 6.94
- k2 (2T analysis), mean (Lung, Naive n = 6): 0.32
- k3 (2T analysis), mean (Lung, Naive n = 6): 0.031
- k3/k4 (2T analysis), mean (Lung, Naive n = 6): 1.38
- k4 (2T analysis), mean (Lung, Naive n = 6): 0.02
- specificity of in vivo binding to TSPO (PK11195 1 mg/kg intravenously, blocking and displacement): blocked and displaced by PK11195
- BPTC (anterior wall of naïve animals): 10.0 ± 2.4 cm^3/mL/min
- Peak SUV, brain (naïve rat): 0.83 ± 0.18 g/mL
- SUVpeak, heart (rat): 2.5
- SUVpeak, lung (rat): 4.0
- VT in the brain (rat): 1.1–2.2 mL/cm^3
SMILES: CC[C@@H](C)N(C)C(=O)c1nc2ccccc2c(-c2ccccc2)c1C[18F] [^18F-LW223]
- excretion routes (mice and rats): both the urinary and the hepatobiliary excretion routes
